Source: patent US10919911B2, “Tricyclic ASK1 inhibitors” (Terns, Inc., priority 2018, dated 2021)

What follows are molecules tested against ASK1 kinase (Homo sapiens (Human), UniProt Q99683) (assay: RBC Kinase Assay (33P-ATP radiometric, myelin basic protein substrate)). Details: 20 ng ASK1 kinase, MBP substrate, 120 min at room temperature, 1% DMSO.
Type: biochemical
Summary of the method: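 Radiometric filter-binding assay: 20 ng ASK1 with myelin basic protein in 20 mM Hepes pH 7.5, 10 mM MgCl2, 1 mM EGTA, 2 mM DTT, 1% DMSO; started with 33P-ATP, 120 min at room temperature. Reactions spotted on P81 paper, acid-washed, radioactivity counted; IC50 determined.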

Chain of ASK1 kinase (Q99683 whole entry): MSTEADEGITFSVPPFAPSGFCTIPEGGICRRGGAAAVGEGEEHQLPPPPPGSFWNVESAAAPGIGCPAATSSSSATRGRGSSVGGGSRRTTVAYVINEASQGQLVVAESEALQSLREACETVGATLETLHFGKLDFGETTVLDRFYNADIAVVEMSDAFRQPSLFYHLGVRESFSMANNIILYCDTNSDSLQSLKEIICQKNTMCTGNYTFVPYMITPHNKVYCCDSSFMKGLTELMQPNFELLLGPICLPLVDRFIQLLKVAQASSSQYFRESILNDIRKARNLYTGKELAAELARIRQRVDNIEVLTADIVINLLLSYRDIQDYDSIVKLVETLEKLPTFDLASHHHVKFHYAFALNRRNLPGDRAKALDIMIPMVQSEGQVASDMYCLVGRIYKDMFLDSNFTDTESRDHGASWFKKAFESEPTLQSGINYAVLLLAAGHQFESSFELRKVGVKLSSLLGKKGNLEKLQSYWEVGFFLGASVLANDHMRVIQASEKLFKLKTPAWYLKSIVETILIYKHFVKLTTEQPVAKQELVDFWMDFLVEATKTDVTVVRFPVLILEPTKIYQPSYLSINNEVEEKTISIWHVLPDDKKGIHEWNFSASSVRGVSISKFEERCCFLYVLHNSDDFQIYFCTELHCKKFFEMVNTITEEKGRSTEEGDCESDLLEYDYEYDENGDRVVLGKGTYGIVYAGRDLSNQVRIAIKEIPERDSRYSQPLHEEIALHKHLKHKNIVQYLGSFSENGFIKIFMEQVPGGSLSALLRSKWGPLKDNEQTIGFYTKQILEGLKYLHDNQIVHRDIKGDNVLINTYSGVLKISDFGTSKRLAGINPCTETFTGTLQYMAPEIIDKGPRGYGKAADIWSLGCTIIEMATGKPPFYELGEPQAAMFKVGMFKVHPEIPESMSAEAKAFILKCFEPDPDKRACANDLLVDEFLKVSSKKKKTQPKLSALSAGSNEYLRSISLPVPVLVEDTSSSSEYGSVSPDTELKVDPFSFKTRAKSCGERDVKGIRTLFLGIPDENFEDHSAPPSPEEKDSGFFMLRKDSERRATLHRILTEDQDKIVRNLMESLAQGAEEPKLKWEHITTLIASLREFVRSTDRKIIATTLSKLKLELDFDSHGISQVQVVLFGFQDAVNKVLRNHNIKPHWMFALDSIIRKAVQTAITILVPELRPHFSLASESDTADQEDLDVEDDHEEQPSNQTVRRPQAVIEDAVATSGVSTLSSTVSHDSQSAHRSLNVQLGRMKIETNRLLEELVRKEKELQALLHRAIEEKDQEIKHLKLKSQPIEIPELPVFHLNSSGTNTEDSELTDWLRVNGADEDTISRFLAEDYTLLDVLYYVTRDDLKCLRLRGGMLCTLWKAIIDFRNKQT

**Q.** Which IC50 does the source give for `Cc1cc(F)c(C(=O)Nc2cccc3c2OCCn2nnnc2-3)cc1-n1cnc(C2CC2)c1` [Example 79, 5-(4-cyclopropyl-1H-imidazol-1-yl)-N-(5,6-dihydrobenzo[f]tetrazolo[1,5-d][1,4]oxazepin-8-yl)-2-fluoro-4-methylbenzamide] here?
**A.** 6.6 nM

**Q.** With `C[C@H]1COc2c(NC(=O)c3cc(-n4cnc(C5CC5)c4)ccn3)cccc2-c2nncn21` [Example 80, (S)-4-(4-cyclopropyl-1H-imidazol-1-yl)-N-(5-methyl-5,6-dihydrobenzo[f][1,2,4]triazolo[4,3-d][1,4]oxazepin-8-yl)picolinamide] as the molecule, how does the IC50 read?
**A.** 5.7 nM

**Q.** Which IC50 does the source give for `Cc1cc(F)c(C(=O)Nc2cccc3c2OCC(CO)n2cnnc2-3)cc1-n1cnc(C2CC2)c1` (stereo not drawn) [Example 81, 5-(4-cyclopropyl-1H-imidazol-1-yl)-2-fluoro-N-(5-(hydroxymethyl)-5,6-dihydrobenzo[f][1,2,4]triazolo[4,3-d][1,4]oxazepin-8-yl)-4-methylbenzamide] here?
**A.** 5.7 nM
